Where two headings read alike, the source gives them in different places.
Key:
[1] = test system: differentiated hMADS adipocytes; assay: Isoproterenol-stimulated lipolysis in differentiated hMADS adipocytes; format: cell-based; settings: Homo sapiens, Adipocyte, 2 h pretreatment, 1 μM isoproterenol 1 h
Method: Human differentiated hMADS adipocytes were pretreated with DMSO or ATGL inhibitors for 2 h. Subsequently, lipolysis was stimulated with 1 μM Isoproterenol for 1 h and fatty acid release was determined from media via NEFA Reagent (Wako Diagnostics). Samples were measured in triplicates.
Human differentiated hMADS adipocytes were pretreated with DMSO or ATGL inhibitors for 2 h. Subsequently, lipolysis was stimulated with 1 μM Isoproterenol for 1 h and glycerol release was determined from media via Free glycerol reagent (Sigma Aldrich). Samples were measured in triplicates.

murine ATGL = molecular target: T1, murine ATGL (Mus musculus, UniProt Q8BJ56); assay: TG hydrolase activity, Expi lysates expressing mouse ATGL + CGI-58, radiolabelled triolein; format: biochemical
T1 construct: made in house; host or cells: Expi cells (lysate)
T1 sequence (Q8BJ56 1-486): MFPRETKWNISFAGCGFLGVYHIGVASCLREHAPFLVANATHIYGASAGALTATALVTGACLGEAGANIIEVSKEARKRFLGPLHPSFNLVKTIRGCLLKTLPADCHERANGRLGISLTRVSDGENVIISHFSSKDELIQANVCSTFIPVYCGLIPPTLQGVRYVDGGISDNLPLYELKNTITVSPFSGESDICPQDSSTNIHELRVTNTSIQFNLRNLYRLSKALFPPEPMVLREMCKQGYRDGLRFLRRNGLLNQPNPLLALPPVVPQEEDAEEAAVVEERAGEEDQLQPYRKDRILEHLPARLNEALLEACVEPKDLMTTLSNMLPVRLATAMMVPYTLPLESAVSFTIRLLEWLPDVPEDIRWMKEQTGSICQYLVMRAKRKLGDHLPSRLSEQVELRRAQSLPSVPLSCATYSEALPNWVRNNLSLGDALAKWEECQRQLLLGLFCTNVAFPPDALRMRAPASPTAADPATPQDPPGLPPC
How it was run: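 Lysates of Expi cells overexpressing mouse ATGL, with added recombinant CGI-58, were incubated with inhibitor at 50 μM. Substrate was emulsified radiolabelled triolein with PC/PI in 100 mM potassium phosphate pH 7.0 and 5% FA-free BSA, 1 h at 37° C. Released FA were extracted and counted by scintillation; triplicates, DMSO control.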

Stability in human serum = format: in vitro ADME; settings: 37° C., HPLC MS
Method: Inhibitors were incubated in human serum for 0 or 3 h at 37° C. and subsequently extracted with the MTBE method and analyzed via HPLC MS. Samples measured in triplicates.

human ATGL [2] = molecular target: T2, human ATGL (Homo sapiens, UniProt Q96AD5); assay: Ki determination, human ATGL lysates with increasing substrate concentrations; format: biochemical; settings: non-linear regression
T2 construct: made in house; host or cells: Expi cells (lysate, not purified)
T2 sequence (Q96AD5 1-504): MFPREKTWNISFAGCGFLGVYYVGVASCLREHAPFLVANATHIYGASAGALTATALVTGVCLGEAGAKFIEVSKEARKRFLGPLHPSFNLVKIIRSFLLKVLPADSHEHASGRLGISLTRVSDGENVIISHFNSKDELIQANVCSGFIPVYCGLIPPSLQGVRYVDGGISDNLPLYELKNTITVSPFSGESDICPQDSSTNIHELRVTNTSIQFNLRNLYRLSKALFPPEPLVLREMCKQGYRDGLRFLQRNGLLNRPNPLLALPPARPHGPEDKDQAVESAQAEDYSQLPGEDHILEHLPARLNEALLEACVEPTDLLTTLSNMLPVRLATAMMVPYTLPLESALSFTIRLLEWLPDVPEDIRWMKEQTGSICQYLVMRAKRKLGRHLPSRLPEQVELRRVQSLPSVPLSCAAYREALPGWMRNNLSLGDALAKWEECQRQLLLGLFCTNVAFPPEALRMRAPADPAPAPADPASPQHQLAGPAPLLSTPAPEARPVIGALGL
Method: For determination of Ki values, lysates from Expi cells overexpressing human ATGL were incubated with recombinant purified ATGL co-activator CGI-58 and ATGL inhibitors at a single concentration dependent on the previously determined IC50. Increasing concentrations of substrate containing radiolabeled triolein were added and liberated FA were extracted and quantified by liquid scintillation. Inhibitors were dissolved in DMSO which was used as control. Ki was determined via non-linear regression analysis. Samples were measured in triplicates.

human ATGL [3] = molecular target: T2, human ATGL; assay: TG hydrolase activity, Expi cell lysates expressing human ATGL + CGI-58, radiolabelled triolein; format: biochemical
How it was run: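 Lysates of Expi cells expressing ATGL, supplemented with purified CGI-58 and inhibitor in DMSO, incubated 1 h at 37 °C with emulsified radiolabelled triolein (330 μM) in potassium phosphate pH 7.0 with 5% FA-free BSA. Released FA counted by liquid scintillation after phase extraction; IC50 versus DMSO control, duplicates.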

[4] = test system: differentiated SGBS adipocytes; assay: Isoproterenol-stimulated lipolysis in differentiated SGBS adipocytes; format: cell-based; settings: Homo sapiens, 2 h pretreatment, 1 μM isoproterenol 1 h
Method: Human differentiated SGBS adipocytes were pretreated with DMSO or ATGL inhibitors for 2 h. Subsequently, lipolysis was stimulated with 1 μM Isoproterenol for 1 h and fatty acid release was determined from media via NEFA Reagent (Wako Diagnostics). Samples were measured in triplicates.
Human differentiated SGBS adipocytes were pretreated with DMSO or ATGL inhibitors for 2 h. Subsequently, lipolysis was stimulated with 1 μM Isoproterenol for 1 h and glycerol release was determined from media via Free glycerol reagent (Sigma Aldrich). Samples were measured in triplicates.

HepG2 cells = assay: Toxicity screening (LDH) in HepG2 cells; format: cell-based, human; settings: 24 h treatment, LDH release
Method: HepG2 cells were seeded in 96 well plates and at 50% confluency treated with DMSO (0.5% final conc.) or ATGL Inhibitors for 24 h in DMEM+P/S+3% heat inactivated FCS (3 h at 62° C.). Subsequently, LDH activity of 50 μl medium was determined via the Roche LDH Kit. Samples measured in triplicates.

hPNPLA9 = molecular target: T3, hPNPLA9 (Homo sapiens, UniProt O60733); assay: hPNPLA9 off-target inhibition; format: biochemical; settings: read-out: hPNPLA9 off-target inhibition [% inhibition at 100 μM]
T3 construct: made in house; host or cells: Expi cells (lysate)
T3 sequence (O60733 1-806): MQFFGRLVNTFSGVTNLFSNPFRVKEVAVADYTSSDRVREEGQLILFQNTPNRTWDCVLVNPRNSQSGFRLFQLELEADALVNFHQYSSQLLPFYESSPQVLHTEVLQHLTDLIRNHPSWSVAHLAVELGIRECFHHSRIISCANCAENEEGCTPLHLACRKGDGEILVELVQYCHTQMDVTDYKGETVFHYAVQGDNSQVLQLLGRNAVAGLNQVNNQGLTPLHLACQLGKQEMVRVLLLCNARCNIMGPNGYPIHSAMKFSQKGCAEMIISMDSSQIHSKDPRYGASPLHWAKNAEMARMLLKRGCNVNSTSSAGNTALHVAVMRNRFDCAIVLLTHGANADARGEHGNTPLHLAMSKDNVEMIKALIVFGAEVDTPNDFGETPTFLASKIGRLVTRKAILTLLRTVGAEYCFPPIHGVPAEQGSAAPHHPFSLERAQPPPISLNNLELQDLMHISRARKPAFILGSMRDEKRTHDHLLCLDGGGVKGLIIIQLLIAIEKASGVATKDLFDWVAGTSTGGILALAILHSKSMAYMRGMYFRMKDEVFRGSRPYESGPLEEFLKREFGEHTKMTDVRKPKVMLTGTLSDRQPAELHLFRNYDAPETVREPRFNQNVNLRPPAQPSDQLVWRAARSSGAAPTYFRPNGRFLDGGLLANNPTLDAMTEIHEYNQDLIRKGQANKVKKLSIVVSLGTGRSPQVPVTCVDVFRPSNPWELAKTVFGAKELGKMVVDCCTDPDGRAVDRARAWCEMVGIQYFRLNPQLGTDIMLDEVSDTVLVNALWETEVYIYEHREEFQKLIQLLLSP
Method: Expi lysates expressing hPNPLA9 were treated with 100 μM Inhibitors and incubated with 1 mM C8 monoacylglycerol substrate (containing 5 mM CHAPS, 50 mM NaPh buffer ph7.4, 0.15 M NaCl) for 40 min. Glycerol release was determined via Free glycerol reagent (Sigma Aldrich). Samples measured in triplicates, […]

[5] = fatty acid release, read-out: IC50 hMADS FA release
[6] = 50 μM compound, Example 237, read-out: Inhibition of murine ATGL at 50 μM − mean [%]
[7] = Example 237, read-out: Inhibition of human ATGL − IC50
[8] = glycerol release, read-out: IC50 hMADS glycerol release
[9] = 50 μM, overview table, read-out: mouse ATGL inhibition [% inhibition at 50 μM]
[10] = fatty acid release, read-out: IC50 SGBS FA release
[11] = glycerol release, read-out: IC50 SGBS glycerol release

| Structure (SMILES) | IC50 [1, 5] | inhibition at 50 µM (murine ATGL; [6]) | melting point | Stability in human serum [% rest after 3 h incubation] (Stability in human serum) | Ki (human ATGL [2]) | IC50 (human ATGL [3]; [7]) | IC50 [1, 8] | inhibition at 50 µM (murine ATGL; [9]) | IC50 [4, 10] | IC50 [4, 11] | IC50 (human ATGL [3]; values of text and figure legend, read-out: IC50 on human ATGL (hATGL)) | Tox HepG2 (LDH) seen from (HepG2 cells) | inhibition at 100 µM (hPNPLA9) |
| --- | --- | --- | --- | --- | --- | --- | --- | --- | --- | --- | --- | --- | --- |
| CCCc1ccc(-c2cccc(C(=O)OC(C)C)n2)cc1 [Example 43] | 3 µM | 9.8% | 104 to 107 °C | 80% | 0.47 µM | 2 µM | – | – | – | – | – | – | – |
| C#CC(C)OC(=O)c1csc(-c2ccc(OCC)cc2)n1 (stereo not drawn) [Example 157, But-3-yn-2-yl 2-(4-ethoxyphenyl)thiazole-4-carboxylate] | 2.5 µM | – | – | – | 0.21 µM | 0.9 µM | 5 µM | – | – | – | – | – | – |
| C=C(C)COC(=O)c1csc(-c2ccc(OCC)cc2)n1 [Example 120, 2-Methylallyl 2-(4-ethoxyphenyl)thiazole-4-carboxylate] | – | 40.5% | – | 5% | 1.2 µM | 4 µM | – | 40% | – | – | – | – | – |
| C=CC(C)OC(=O)c1csc(-c2ccc(OCC)cc2)n1 (stereo not drawn) [Example 148, But-3-en-2-yl 2-(4-ethoxyphenyl)thiazole-4-carboxylate] | – | – | – | – | – | 2 µM | – | 30% | 2 µM | 3 µM | – | – | – |
| CCCc1ccc(-c2cc(OC)cc(C(=O)OC(C)C)n2)cc1 [Example 53] | – | 0% | – | 80% | 0.55 µM | 1.5 µM | 80 µM | – | – | – | – | – | – |
| CCOC(=O)c1csc(-c2ccc(OCC)cc2)n1 [Example 101, Ethyl 2-(4-ethoxyphenyl)thiazole-4-carboxylate] | – | 23.6% | – | 25% | 2.5 µM | – | – | 30% | 3 µM | 3 µM | 2.5 µM | – | – |
| CCCCCCOc1ccc(-c2cccc(C(=O)OC(C)C)n2)cc1 [Example 69] | – | – | 68 to 70 °C | 80% | 0.83 µM | 1 µM | 80 µM | – | – | – | – | – | – |
| COCc1ccc(-c2cc(OC)cc(C(=O)OC(C)C)n2)cc1 [Example 61] | 2 µM | – | – | 75% | 0.42 µM | 1 µM | – | – | – | – | – | 50 µM | – |
| CCOc1ccc(-c2cccc(C(=O)OC(C)C)n2)cc1 [Example 6] | – | 0% | – | – | – | 3 µM | – | – | 2 µM | – | – | – | 0% |
| CCCOc1ccc(-c2nc(C(=O)OCC)cs2)cc1 [Example 105, Ethyl 2-(4-propoxyphenyl)thiazole-4-carboxylate] | – | 12.2% | – | – | – | 3 µM | – | – | 3 µM | 3 µM | – | – | – |
| CC(C)OC(=O)c1cccc(-c2ccc(C(F)(F)F)cc2)n1 [Example 41] | – | 28.2% | 98 to 99 °C | 75% | 2.5 µM | 3 µM | – | – | – | – | – | – | – |
| CCCCCCCOc1ccc(-c2cccc(C(=O)OC(C)C)n2)cc1 [Example 86] | 1 µM | 0% | 64 to 66 °C | 80% | 0.47 µM | 1.5 µM | – | – | – | – | – | – | – |
| CCCCCCc1ccc(-c2cccc(C(=O)OC(C)C)n2)cc1 [Example 68] | 1 µM | 0% | 34 to 35 °C | 80% | 0.27 µM | 1.5 µM | – | – | – | – | – | – | – |

— patent publication US20220289698A1, “INHIBITORS OF HUMAN ATGL” (Karl-Franzens-Universität Graz, priority 2019, published 2022)
